Converted amounts (≈) assume the structure as drawn. Read-outs that look alike come from different tables or passages of the source.
Key:
[1] = biological target: T1, full-length beta-Catenin (Uniprot ID P35222) (Homo sapiens, UniProt P35222); assay: Fluorescence polarization IC50 (beta-catenin / 5FAM-TCF4 10-53 competition); format: binding
T1 construct: 10 nM full-length beta-Catenin (Uniprot ID P35222)
T1 sequence (P35222 1-781): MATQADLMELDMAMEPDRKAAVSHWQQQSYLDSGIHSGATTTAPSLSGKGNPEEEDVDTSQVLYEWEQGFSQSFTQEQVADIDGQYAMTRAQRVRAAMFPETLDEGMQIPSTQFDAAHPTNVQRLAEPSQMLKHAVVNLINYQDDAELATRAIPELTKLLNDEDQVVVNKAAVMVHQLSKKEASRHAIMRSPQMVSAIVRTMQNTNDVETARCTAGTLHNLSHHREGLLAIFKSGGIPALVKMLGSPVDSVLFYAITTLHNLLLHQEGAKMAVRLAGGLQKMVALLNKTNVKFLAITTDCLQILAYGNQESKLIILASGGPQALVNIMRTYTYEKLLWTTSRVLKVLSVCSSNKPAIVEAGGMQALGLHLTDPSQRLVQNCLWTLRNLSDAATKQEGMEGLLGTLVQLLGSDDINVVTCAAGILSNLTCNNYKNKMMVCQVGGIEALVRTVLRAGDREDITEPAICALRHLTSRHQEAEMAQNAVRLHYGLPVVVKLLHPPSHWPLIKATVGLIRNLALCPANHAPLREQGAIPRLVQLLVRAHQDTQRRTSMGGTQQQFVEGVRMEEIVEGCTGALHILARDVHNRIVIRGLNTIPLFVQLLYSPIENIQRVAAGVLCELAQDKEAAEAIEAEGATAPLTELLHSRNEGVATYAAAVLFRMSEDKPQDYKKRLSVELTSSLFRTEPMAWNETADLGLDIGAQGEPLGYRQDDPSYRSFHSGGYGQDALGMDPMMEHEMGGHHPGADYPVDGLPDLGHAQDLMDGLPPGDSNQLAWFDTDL

[2] = CHI Log D procedure; format: physicochemical; details: for chromatographic logD: pH 7.4, CHI Log D; for CHI Log D: pH 7.4
[3] = Solubility in PBS; format: physicochemical
Outline: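 HPLC quantitation of peptide remaining in the PBS supernatant after ultracentrifugation, referenced to a 50 μM solution in DMSO.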

[4] = fluorescence polarization, read-out: beta-Catenin FP IC50
[5] = fluorescence polarization, beta-catenin, read-out: FP EC50

CC[C@H](C)[C@@H]1NC(=O)[C@H](CC(=O)O)NC(=O)[C@]2(CC=CCCCC3(CCCC=CCCCCCC[C@@](C)(C(=O)N[C@@H](Cc4ccccc4)C(=O)N[C@@H](Cc4csc5ccccc45)C(=O)N[C@@H](CCC(N)=O)C(N)=O)NC(=O)[C@H](CCC(N)=O)NC(=O)[C@H](Cc4ccccc4)NC(=O)[C@H](C)NC(=O)[C@H](C)NC(=O)[C@H](CCC(N)=O)NC(=O)[C@H](CC(=O)O)NC3=O)NC1=O)CCCN2C(C)=O (stereo partly drawn) [I-603, Ac-PL3-Asp-Ile-B5-Asp-Gln-Ala-Ala-Phe-Gln-S8-Phe-BztA-Gln-NH2]
IC50 [1, 4]: 392 nM | chromatographic logD [2]: 2.62 | Solubility [3]: 10 µM (≈ 18.8 µg/mL)

CC[C@H](C)[C@@H]1NC(=O)[C@H](CC(=O)O)NC(=O)[C@]2(CC=CCCCC3(CCCC=CCCCCCC[C@@](C)(C(=O)N[C@@H](Cc4ccccc4)C(=O)N[C@@H](Cc4csc5ccccc45)C(=O)N[C@@H](CCC(N)=O)C(N)=O)NC(=O)[C@H](CCC(N)=O)NC(=O)[C@H](Cc4ccccc4)NC(=O)[C@H](C)NC(=O)[C@H](C)NC(=O)[C@H](CCC(=O)O)NC(=O)[C@H](CC(=O)O)NC3=O)NC1=O)CCCN2S(C)(=O)=O (stereo partly drawn) [I-711, MeSO2-PL3-Asp-Ile-B5-Asp-Glu-Ala-Ala-Phe-Gln-S8-Phe-BztA-Gln-NH2]
IC50 [1, 4]: 88 nM | IC50 ([1]; read-out: FP EC50): 88 nM | CHI Log D [2]: 2.132 | Solubility [3]: 48 µM (≈ 92.1 µg/mL)

CC(=O)N1CCC[C@]12CC=CCCCC1(CCCC=CCCCCCC[C@@](C)(C(=O)N[C@@H](Cc3ccccc3)C(=O)N[C@@H](Cc3csc4ccccc34)C(N)=O)NC(=O)[C@H](CC(N)=O)NC(=O)[C@H](Cc3ccccc3)NC(=O)[C@H](C)NC(=O)[C@H](C)NC(=O)[C@H](CCC(=O)O)NC(=O)[C@H](CC(=O)O)NC1=O)NC(=O)[C@H](CC(C)C)NC(=O)[C@H](CC(=O)O)NC2=O (stereo partly drawn) [I-625, Ac-PL3-Asp-Leu-B5-Asp-Glu-Ala-Ala-Phe-Asn-S8-Phe-BztA-NH2]
IC50 [1, 4]: 119 nM | IC50 ([1]; read-out: FP EC50): 119 nM | CHI Log D [2]: 2.681 | Solubility [3]: 47 µM (≈ 81.8 µg/mL)

CC[C@H](C)[C@@H]1NC(=O)[C@H](CC(=O)O)NC(=O)[C@]2(CC=CCCCC3(CCCC=CCCCCCC[C@@](C)(C(=O)N[C@@H](Cc4ccccc4)C(=O)N[C@@H](Cc4csc5ccccc45)C(=O)N[C@@H](CCC(N)=O)C(N)=O)NC(=O)[C@H](CCC(N)=O)NC(=O)[C@H](Cc4ccccc4)NC(=O)[C@H](C)NC(=O)[C@H](C)NC(=O)[C@H](CCC(=O)O)NC(=O)[C@H](CC(=O)O)NC3=O)NC1=O)CCCN2C(=O)c1cccnc1 (stereo partly drawn) [I-598, Nic-PL3-Asp-Ile-B5-Asp-Glu-Ala-Ala-Phe-Gln-S8-Phe-BztA-Gln-NH2]
IC50 [1, 4]: 845 nM | chromatographic logD [2]: 2.24 | Solubility ([3]; Solubility (uM)): 49 µM (≈ 95.4 µg/mL)

CC(=O)N1CCC[C@]12CC=CCCCC1(CCCC=CCCCOC(=O)N3CC[C@@](C(=O)N[C@@H](Cc4ccsc4)C(=O)N[C@@H](Cc4csc5ccccc45)C(=O)N[C@@H](CCO)C(N)=O)(C3)NC(=O)[C@H](CC(N)=O)NC(=O)[C@H](Cc3ccccc3)NC(=O)[C@H](C)NC(=O)[C@H](C)NC(=O)[C@H](CN(CC(=O)O)CC(F)(F)F)NC(=O)[C@H](CC(=O)O)NC1=O)NC(=O)[C@H](CC(C)(C)C)NC(=O)[C@H](CC(=O)O)NC2=O (stereo partly drawn) [I-950, Ac-PL3-Asp-Npg-B5-Asp-TfeGA-Ala-Ala-Phe-Asn-PyrS2-3Thi-BztA-Hse-NH2]
IC50 [1, 5]: 1630 nM | IC50 ([1]; read-out: beta-Catenin FP IC50): 1630 nM | CHI Log D [2]: 1.9 | Solubility [3]: 46 µM (≈ 92.1 µg/mL)

CC[C@H](C)[C@H](NC(=O)[C@H](CCC(N)=O)NC(=O)[C@H](Cc1csc2ccccc12)NC(=O)[C@H](Cc1ccccc1)NC(=O)[C@]1(C)CCCCCCC=CCCCC2(CCCC=CC[C@]3(CCCN3C(C)=O)C(=O)N[C@@H](CC(=O)O)C(=O)N[C@@H](CC(C)C)C(=O)N2)C(=O)N[C@@H](CC(=O)O)C(=O)N[C@@H](CCC(=O)O)C(=O)N[C@@H](C)C(=O)N[C@@H](C)C(=O)N[C@@H](Cc2ccccc2)C(=O)N[C@@H](CC(N)=O)C(=O)N1)C(N)=O (stereo partly drawn) [I-733, Ac-PL3-Asp-Leu-B5-Asp-Glu-Ala-Ala-Phe-Asn-S8-Phe-BztA-Gln-Ile-NH2]
IC50 [1, 4]: 4260 nM | IC50 ([1]; read-out: FP EC50): 4260 nM | CHI Log D [2]: 2.154 | Solubility [3]: 43 µM (≈ 85.2 µg/mL)

CC(=O)N1CCC[C@]12CC=CCCCC1(CCCC=CCCCOC(=O)N3CC[C@@](C(=O)N[C@@H](Cc4ccsc4)C(=O)N[C@@H](Cc4csc5ccccc45)C(=O)N[C@@H](Cc4c[nH]cn4)C(N)=O)(C3)NC(=O)[C@H](CC(N)=O)NC(=O)[C@H](Cc3ccccc3)NC(=O)[C@H](C)NC(=O)[C@H](C)NC(=O)[C@H](CCC(=O)O)NC(=O)[C@H](CC(=O)O)NC1=O)NC(=O)[C@H](CC(C)(C)C)NC(=O)[C@H](CC(=O)O)NC2=O (stereo partly drawn) [I-698, Ac-PL3-Asp-Npg-B5-Asp-Glu-Ala-Ala-Phe-Asn-PyrS2-3Thi-BztA-His-NH2]
IC50 [1, 4]: 5 nM | CHI Log D [2]: 2.153 | Solubility [3]: 43 µM (≈ 83.5 µg/mL)

CC(=O)N1CCC[C@]12CC=CCCCC1(CCCC=CCCCCCC[C@@](C)(C(=O)N[C@@H](Cc3ccccc3)C(=O)N[C@@H](Cc3csc4ccccc34)C(=O)N[C@@H](CCC(N)=O)C(N)=O)NC(=O)[C@H](CC(N)=O)NC(=O)[C@H](Cc3cccs3)NC(=O)[C@H](C)NC(=O)[C@H](C)NC(=O)[C@H](CCC(=O)O)NC(=O)[C@H](CC(=O)O)NC1=O)NC(=O)[C@H](C)NC(=O)[C@H](CC(=O)O)NC2=O (stereo partly drawn) [I-447, Ac-PL3-Asp-Ala-B5-Asp-Glu-Ala-Ala-2Thi-Asn-S8-Phe-BztA-Gln-NH2]
IC50 [1, 4]: 74 nM | IC50 ([1]; read-out: FP EC50): 74 nM | CHI Log D [2]: 1.996 | Solubility [3]: 50 µM (≈ 91.7 µg/mL)

CC(=O)N1CCC[C@]12CC=CCCCC1(CCCC=CCCCOC(=O)N3CC[C@@](C(=O)N[C@@H](Cc4ccsc4)C(=O)N[C@@H](Cc4csc5ccccc45)C(=O)N[C@@H](CO)C(N)=O)(C3)NC(=O)[C@H](CC(C)C)NC(=O)[C@H](Cc3ccccc3)NC(=O)[C@H](C)NC(=O)[C@H](C)NC(=O)[C@H](CN(CC(=O)O)CC(F)(F)F)NC(=O)[C@H](CC(=O)O)NC1=O)NC(=O)[C@H](CC(C)(C)C)NC(=O)[C@H](CC(=O)O)NC2=O (stereo partly drawn) [I-961, Ac-PL3-Asp-Npg-B5-Asp-TfeGA-Ala-Ala-Phe-Leu-PyrS2-3Thi-BztA-Ser-NH2]
IC50 [1, 5]: 357 nM | IC50 ([1]; read-out: beta-Catenin FP IC50): 357 nM | CHI Log D [2]: 2.123 | Solubility [3]: 10 µM (≈ 19.9 µg/mL)

CC(=O)N1CCC[C@]12CC=CCCCC1(CCCC=CCCCCCC[C@@](C)(C(=O)N[C@@H](Cc3ccccc3)C(=O)N[C@@H](Cc3csc4ccccc34)C(=O)N[C@@H](Cc3ccco3)C(N)=O)NC(=O)[C@H](CCC(N)=O)NC(=O)[C@H](Cc3ccccc3)NC(=O)[C@H](C)NC(=O)[C@H](C)NC(=O)[C@H](CCC(=O)O)NC(=O)[C@H](CC(=O)O)NC1=O)NC(=O)[C@H](C)NC(=O)[C@H](CC(=O)O)NC2=O (stereo partly drawn) [I-490, Ac-PL3-Asp-Ala-B5-Asp-Glu-Ala-Ala-Phe-Gln-S8-Phe-BztA-2FurA-NH2]
IC50 [1, 4]: 88 nM | chromatographic logD [2]: 2.21 | Solubility [3]: 50 µM (≈ 92.5 µg/mL)

CC(=O)N1CCC[C@]12CC=CCCCC1(CCCC=CCCCCCC[C@@](C)(C(=O)N[C@@H](Cc3ccccc3)C(=O)N[C@@H](Cc3csc4ccccc34)C(=O)N[C@@H](CCC(N)=O)C(N)=O)NC(=O)[C@H](CCCNC(N)=O)NC(=O)[C@H](Cc3ccccc3)NC(=O)[C@H](C)NC(=O)[C@H](C)NC(=O)[C@H](CCC(=O)O)NC(=O)[C@H](CC(=O)O)NC1=O)NC(=O)[C@H](CC(C)C)NC(=O)[C@H](CC(=O)O)NC2=O (stereo partly drawn) [I-621, Ac-PL3-Asp-Leu-B5-Asp-Glu-Ala-Ala-Phe-Cit-S8-Phe-BztA-Gln-NH2]
IC50 [1, 4]: 58 nM | chromatographic logD [2]: 2.34 | Solubility [3]: 50 µM (≈ 95.6 µg/mL)

CCN(CC(=O)O)C[C@@H]1NC(=O)[C@H](CC(=O)O)NC(=O)C2(CCCC=CCCCOC(=O)N3CC[C@@](C(=O)N[C@@H](Cc4ccsc4)C(=O)N[C@@H](Cc4csc5ccccc45)C(=O)N[C@@H](CCC(N)=O)C(N)=O)(C3)NC(=O)[C@H](CO)NC(=O)[C@H](Cc3ccccc3)NC(=O)[C@H](C)NC(=O)[C@H](C)NC1=O)CCCC=CC[C@]1(CCCN1C(C)=O)C(=O)N[C@@H](CC(=O)O)C(=O)N[C@@H](CC(C)(C)C)C(=O)N2 (stereo partly drawn) [I-967, Ac-PL3-Asp-Npg-B5-Asp-EtGA-Ala-Ala-Phe-Ser-PyrS2-3Thi-BztA-Gln-NH2]
IC50 [1, 5]: 1740 nM | IC50 ([1]; read-out: beta-Catenin FP IC50): 1740 nM | CHI Log D [2]: 1.884 | Solubility [3]: 45 µM (≈ 87.7 µg/mL)

CCCC[C@@H]1NC(=O)[C@H](CCC(=O)O)NC(=O)[C@H](CC(=O)O)NC(=O)C2(CCCC=CCCCCCC[C@@](C)(C(=O)N[C@@H](Cc3ccccc3)C(=O)N[C@@H](Cc3csc4ccccc34)C(=O)N[C@@H](CCC(N)=O)C(N)=O)NC(=O)[C@H](CCC(N)=O)NC(=O)[C@H](Cc3ccccc3)NC(=O)[C@H](C)NC1=O)CCCC=CC[C@]1(CCCN1C(C)=O)C(=O)N[C@@H](CC(=O)O)C(=O)N[C@@H]([C@@H](C)CC)C(=O)N2 (stereo partly drawn) [I-657, Ac-PL3-Asp-Ile-B5-Asp-Glu-nLeu-Ala-Phe-Gln-S8-Phe-BztA-Gln-NH2]
IC50 [1, 4]: 46 nM | IC50 ([1]; read-out: FP EC50): 46 nM | CHI Log D [2]: 2.767 | Solubility [3]: 40 µM (≈ 77 µg/mL)
